{
  "source": "patent US11084783B2",
  "about": "“O-alkyl-benzylideneguanidine derivatives and therapeutic use for the treatment of disorders associated with an accumulation of misfolded proteins” (INFLECTIS BIOSCIENCE, priority 2014, dated 2021)",
  "key": {"[1]": {"tested_on": "amyloid-beta 1-42 injured primary cortical rat neurons", "test": "In vitro Alzheimer disease model: amyloid-beta 1-42 injured primary cortical rat neurons", "format": "cell-based", "conditions": "Amyloid-beta 1-42 20 μM, 24 hours; total number of neurons (MAP-2)", "protocol": "Rat cortical neurons were cultured as described by Singer et al., (1999 J. Neuroscience 19 pp2455-63) and Callizot et al., (2013 J.Neurosci. Res. 91 pp706-16). Pregnant females (Wistar; Janvier Labs) at 15 days of gestation were killed by cervical dislocation. Fetuses were collected and immediately placed in ice-cold L15 Leibovitz medium (Pan Biotech, Batch: 9310614) with a 2% penicillin (10,000 U/mI) and streptomycin (10 mg/ml) solution (PS; Pan Biotech, Batch: 1451013) and 1% bovine serum albumin (BSA; Pan Biotech, Batch: h140603). Cortex was treated for 20 min at 37° C. with a trypsin-EDTA (Pan Biotech, Batch: 5890314) solution at a final concentration of 0.05% trypsin and 0.02% EDTA. […] Viable cells were counted in a Neubauer cytometer, using the trypan blue exclusion test. […]\nThe Amyloid-beta1-42 preparation was done following the procedure described by Callizot et al., 2013. […] Amyloid-beta 1-42 preparation was added to a final concentration of 20 μM (including to ˜2 μM of toxic oligomers measured by WB) diluted in control medium in presence of drugs. […]\nThe immunolabeled cultures were automatically examined with ImageXpress (Molecular device USA) at ×20 magnification. For each condition, 30 automatically fields per well (representing ˜80% of the total surface of the well) from 3 wells were analyzed. […] All values were expressed as mean +/−SEM (s.e.mean) (n=3 wells per condition per culture)."}, "[2]": {"tested_on": "neonatal rat cardiomyocytes", "test": "Hypoxia-induced apoptosis in cultured neonatal rat cardiomyocytes", "format": "cell-based", "conditions": "hypoxia 0.3% O2 for 36 h, apoptotic cells by FACS", "from_the_text": "Primary cultures of neonatal rat cardiomyocytes were obtained from the ventricles of 1-day-old Sprague Dawley rats (Janvier, France). The rats were euthanized and their hearts excised. Hearts cut into small pieces (1-2 mm^3) and enzymatically digested using the Neonatal Heart Dissociation Kit rat and the gentleMACS™ Dissociator (MiltenyiBiotec, Germany). After dissociation, the homogenates were filtered (70 μm) to obtain a single-cell suspension. Isolated cells were collected by centrifugation and resuspended in Dulbecco's Modified Eagle's Medium (DMEM) containing 10% horse serum (HS), 5% fetal bovine serum (FBS) and 1% penicillin/streptomycin. Cultures were enriched with myocytes by pre-plating for 90 min to deplete the population of non-myocytes. Non-attached cells were plated onto 6- or 96-well plates at an appropriate cell density. […]\nAfter 24 hours, the cardiomyocytes were treated with different concentrations of test compound in culture medium with 0.1% DMSO. […] Thirty minutes after starting the treatments, the cells were incubated in the hypoxic culture chamber (N2/CO2, 95%/5%; final measured O2: 0.3%) for 36 hours. […]\nAt the end of the treatment period, flow cytometry were performed to measure the amount of apoptotic cells. […] The mixture was incubated for 15 min in the dark at room temperature, and cellular fluorescence was then measured by FACS scan flow cytometry."}},
  "data": [
    {"smiles": "CCCONC(=N)N/N=C/c1ccccc1Cl", "note": "[Compound 12, 2-(2-chlorobenzylidene)-N-propoxyhydrazinecarboximidamide]", "values": [
      {"measurement": "protection of amyloid-beta 1-42 injured primary cortical rat neurons (FIG. 4)", "setting": "[1]", "value": "dose dependent protection"}
    ]},
    {"smiles": "CCO/N=C(\\N)N/N=C/c1ccccc1Cl", "note": "[Compound 10, 2-(2-chlorobenzylidene)-N′-ethoxyhydrazinecarboximidamide]", "values": [
      {"measurement": "protection from hypoxia-induced apoptosis (FIG. 10)", "setting": "[2]", "value": "protects"}
    ]}
  ]
}
